Test results reported in publication PMC4965013, “Open Source Drug Discovery with the Malaria Box Compound Collection for Neglected Diseases and Beyond” (PLoS Pathogens, 2016).

What was measured:
[1] = system: P. falciparum 3D7 trophozoites; assay: Metabolomic fingerprint profiling LC-MS; type: cell-based, Plasmodium falciparum; design: UDP-D-glucose / ADP-D-glucose: unit not given here; conditions: for Acetyllysine / N-acetyl-L-ornithine / N-carbamoyl-L-aspartate / NADPH / dAMP / dCMP / dTDP / dTMP / dTTP / dihydroorotate / orotate / DLH / DLS/SDL/SID / PD / PEE / PVNF / 3-phosphoglycerate / ADP-D-glucose / ATP / CDP / D-sedoheptulose-1/7-phosphate / FAD / GMP / NAD+ / NADP+ / Octoluse Bisphosphate / Pyroglutamic acid / UDP-D-glucose / UDP-D-glucuronate / UDP-N-acetyl-glucosamine / UDP / UMP / UTP / a-ketoglutarate / citrate/isocitrate / cytidine / dATP / dGMP/AMP / fumarate / glucose-1/6-phosphate / glycerate / guanine / guanosine / hypoxanthine / indole / inosine / nicotinate / ornithine / phosphoenolpyruvate / pyruvate / ribose-phosphate / sarcosine/alanine / sn-glycerol-3-phosphate / succinate/methylmalonic acid / uridine / xanthosine: S2 Table Metabolomics; for Acetyllysine: metabolite Acetyllysine; for N-acetyl-L-ornithine: metabolite N-acetyl-L-ornithine; for N-carbamoyl-L-aspartate: metabolite N-carbamoyl-L-aspartate; for NADPH: metabolite NADPH; for dAMP: metabolite dAMP; for dCMP: metabolite dCMP; for dTDP: metabolite dTDP; for dTMP: metabolite dTMP; for dTTP: metabolite dTTP; for dihydroorotate: metabolite dihydroorotate; for orotate: metabolite orotate; for DLH: peptide DLH; for DLS/SDL/SID: peptide DLS/SDL/SID; for PD: peptide PD; for PEE: peptide PEE; for PVNF: peptide PVNF; for 3-phosphoglycerate: metabolite 3-phosphoglycerate; for ADP-D-glucose: metabolite ADP-D-glucose; for ATP: metabolite ATP; for CDP: metabolite CDP; for CDP / D-sedoheptulose-1/7-phosphate / GMP / Octoluse Bisphosphate / UDP / UMP / UTP / citrate/isocitrate / dGMP/AMP / fumarate / glucose-1/6-phosphate / glycerate / guanine / guanosine / inosine / pyruvate / sarcosine/alanine / succinate/methylmalonic acid / uridine / xanthosine: change in metabolite level after compound treatment; for D-sedoheptulose-1/7-phosphate: metabolite D-sedoheptulose-1/7-phosphate; for FAD: metabolite FAD; for GMP: metabolite GMP; for NAD+: metabolite NAD+; for NADP+: metabolite NADP+; for Octoluse Bisphosphate: metabolite Octoluse Bisphosphate; for Pyroglutamic acid: metabolite Pyroglutamic acid; for UDP-D-glucose: metabolite UDP-D-glucose; for UDP-D-glucuronate: metabolite UDP-D-glucuronate; for UDP-N-acetyl-glucosamine: metabolite UDP-N-acetyl-glucosamine; for UDP: metabolite UDP; for UMP: metabolite UMP; for UTP: metabolite UTP; for a-ketoglutarate: metabolite a-ketoglutarate; for citrate/isocitrate: metabolite citrate/isocitrate; for cytidine: metabolite cytidine; for dATP: metabolite dATP; for dGMP/AMP: metabolite dGMP/AMP; for fumarate: metabolite fumarate; for glucose-1/6-phosphate: metabolite glucose-1/6-phosphate; for glycerate: metabolite glycerate; for guanine: metabolite guanine; for guanosine: metabolite guanosine; for hypoxanthine: metabolite hypoxanthine; for indole: metabolite indole; for inosine: metabolite inosine; for 2_3-Diphosphoglyceric acid / 4-phosphopantothenate / 6-phospho-D-gluconate / FMN / IMP / Pyrophosphate / Sedoheptoluse bisphosphate / cyclic-AMP / glutathione disulfide / lactate / myo-inositol: metabolite level change after treatment; for nicotinate: metabolite nicotinate; for ornithine: metabolite ornithine; for phosphoenolpyruvate: metabolite phosphoenolpyruvate; for pyruvate: metabolite pyruvate; for ribose-phosphate: metabolite ribose-phosphate; for sarcosine/alanine: metabolite sarcosine/alanine; for sn-glycerol-3-phosphate: metabolite sn-glycerol-3-phosphate; for succinate/methylmalonic acid: metabolite succinate/methylmalonic acid; for uridine: metabolite uridine; for xanthosine: metabolite xanthosine
P. falciparum = assay: EC50 listed in S2 Table Metabolomics (used to set the concentration tested); type: cell-based; conditions: Plasmodium falciparum; EC50 used for Factor_XEC50 in metabolomics; read-out: EC50_nM

## Cc1cc(C)c2c(c1)OCN(Cc1ccccc1Cl)C2 [MMV006558]
[1]
  Acetyllysine: -2.938
  N-acetyl-L-ornithine: -1.964
  N-carbamoyl-L-aspartate: -1.702
  NADPH: 1.445
  dAMP: -0.9651
  dCMP: -1.6
  dTDP: -0.8236
  dTMP: -0.6183
  dTTP: -0.3776
  dihydroorotate: -0.3745
  orotate: -1.522
  DLH: -1.617
  DLS/SDL/SID: -1.662
  PD: -0.9196
  PEE: -0.2697
  PVNF: -2.308
  3-phosphoglycerate: 0.4267
  ADP-D-glucose: 0.5003
  ATP: -0.07449
  CDP: -0.458
  D-sedoheptulose-1/7-phosphate: -0.2481
  FAD: -0.09577
  GMP: -0.6278
  NAD+: -0.187
  NADP+: 0.696
  Octoluse Bisphosphate: 0.1942
  Pyroglutamic acid: -0.3768
  UDP-D-glucose: -0.01001
  UDP-D-glucuronate: -0.03433
  UDP-N-acetyl-glucosamine: -0.1316
  UDP: -0.1918
  UMP: -1.063
  UTP: -0.2178
  a-ketoglutarate: -0.938
  citrate/isocitrate: -0.4783
  cytidine: 0.109
  dATP: -0.2852
  dGMP/AMP: -0.5349
  fumarate: -0.8198
  glucose-1/6-phosphate: -0.2057
  glycerate: -0.7466
  guanine: -1.035
  guanosine: -2.479
  hypoxanthine: -0.7995
  indole: -0.5445
  inosine: -0.9523
  2_3-Diphosphoglyceric acid: 0.34
  4-phosphopantothenate: -0.8939
  6-phospho-D-gluconate: 0.2839
  FMN: -0.2862
  IMP: -0.2354
  Pyrophosphate: 0.3685
  Sedoheptoluse bisphosphate: 0.2016
  cyclic-AMP: -0.8187
  glutathione disulfide: -0.2625
  lactate: -0.7314
  myo-inositol: -0.7596
  nicotinate: -0.1344
  ornithine: -0.1775
  phosphoenolpyruvate: 0.3748
  pyruvate: -0.4201
  ribose-phosphate: -0.1559
  sarcosine/alanine: -0.2827
  sn-glycerol-3-phosphate: 0.1135
  succinate/methylmalonic acid: -0.725
  uridine: -1.514
  xanthosine: -1.032
P. falciparum
  EC50: 268 nM

## CCOC(=O)c1c(NC(=O)c2ccccc2)sc2c(O)c(CN(CC)CC)ccc12 [MMV665831]
[1]
  Acetyllysine: -3.559
  N-acetyl-L-ornithine: -2.775
  N-carbamoyl-L-aspartate: -1.992
  NADPH: 1.923
  dAMP: -1.503
  dCMP: -0.7769
  dTDP: -0.143
  dTMP: 0.09088
  dTTP: -0.5361
  dihydroorotate: -1.759
  orotate: -1.534
  DLH: -5.287
  DLS/SDL/SID: -4.31
  PD: -4.8541
  PEE: -3.834
  PVNF: -4.964
  3-phosphoglycerate: -0.2896
  ADP-D-glucose: -0.2463
  ATP: 0.0783
  CDP: 0.9119
  D-sedoheptulose-1/7-phosphate: 0.4987
  FAD: 0.1414
  GMP: -0.668
  NAD+: -0.0766
  NADP+: 0.2915
  Octoluse Bisphosphate: -0.5945
  Pyroglutamic acid: 0.1607
  UDP-D-glucose: 0.05295
  UDP-D-glucuronate: 0.02399
  UDP-N-acetyl-glucosamine: -0.03093
  UDP: 0.469
  UMP: -0.6472
  UTP: 0.04522
  a-ketoglutarate: -1.141
  citrate/isocitrate: 0.03995
  cytidine: 0.9734
  dATP: -0.7894
  dGMP/AMP: -0.1413
  fumarate: -1.268
  glucose-1/6-phosphate: -0.4706
  glycerate: -0.5026
  guanine: -0.4153
  guanosine: -0.8776
  hypoxanthine: -0.04834
  indole: -0.03305
  inosine: -0.4277
  2_3-Diphosphoglyceric acid: 0.2082
  4-phosphopantothenate: -0.594
  6-phospho-D-gluconate: -0.9918
  FMN: 0.1595
  IMP: -0.2597
  Pyrophosphate: -0.0001746
  Sedoheptoluse bisphosphate: -0.3963
  cyclic-AMP: -0.8626
  glutathione disulfide: -0.3472
  lactate: -0.3473
  myo-inositol: -0.3976
  nicotinate: -0.05954
  ornithine: -0.2486
  phosphoenolpyruvate: -0.1118
  pyruvate: -0.4191
  ribose-phosphate: -0.6703
  sarcosine/alanine: -1.233
  sn-glycerol-3-phosphate: -0.08824
  succinate/methylmalonic acid: -0.8852
  uridine: -0.3477
  xanthosine: -1.069
P. falciparum
  EC50: 205 nM

## CCOC(=O)c1cnc2ccc(CC)cc2c1O [MMV007116]
[1]
  Acetyllysine: -0.1012
  N-acetyl-L-ornithine: 0.0981
  N-carbamoyl-L-aspartate: 2.971
  NADPH: -0.5029
  dAMP: -0.4219
  dCMP: 0.4317
  dTDP: -1.171
  dTMP: -0.8513
  dTTP: -0.7029
  dihydroorotate: 3.788
  orotate: -1.509
  DLH: 0.2963
  DLS/SDL/SID: 0.1623
  PD: 0.3262
  PEE: 0.1615
  PVNF: 0.2601
  3-phosphoglycerate: -0.1794
  ADP-D-glucose: 0.1742
  ATP: 0.4661
  CDP: -0.7049
  D-sedoheptulose-1/7-phosphate: -0.06275
  FAD: 0.2601
  GMP: -0.15
  NAD+: 0.1229
  NADP+: 0.2138
  Octoluse Bisphosphate: 0.1604
  Pyroglutamic acid: 0.5147
  UDP-D-glucose: 0.04103
  UDP-D-glucuronate: 0.1753
  UDP-N-acetyl-glucosamine: -0.1032
  UDP: -1.173
  UMP: -0.7684
  UTP: -0.9344
  a-ketoglutarate: -0.7057
  citrate/isocitrate: -0.7167
  cytidine: 0.3209
  dATP: 0.325
  dGMP/AMP: -0.3675
  fumarate: 0.4728
  glucose-1/6-phosphate: 0.07021
  glycerate: -0.09904
  guanine: -0.05466
  guanosine: -0.14
  hypoxanthine: -0.2065
  indole: -0.3037
  inosine: -0.2408
  2_3-Diphosphoglyceric acid: 0.3408
  4-phosphopantothenate: -0.2638
  6-phospho-D-gluconate: 0.07683
  FMN: -0.08712
  IMP: -0.2111
  Pyrophosphate: 0.42
  Sedoheptoluse bisphosphate: 0.05124
  cyclic-AMP: 0.01532
  glutathione disulfide: 0.02122
  lactate: -0.5604
  myo-inositol: -0.5893
  nicotinate: -0.6598
  ornithine: -0.07172
  phosphoenolpyruvate: -0.09558
  pyruvate: -0.6031
  ribose-phosphate: 0.2426
  sarcosine/alanine: -0.04206
  sn-glycerol-3-phosphate: 0.1096
  succinate/methylmalonic acid: 0.07837
  uridine: -1.178
  xanthosine: 0.04101
P. falciparum
  EC50: 351 nM
